Laboratory results: PubChem BioAssay (NCI)
“And” between values parts separate entries of the source, which are not always exact repeats. Identical values can stand only once.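 Results reflect a 48-hour exposure of cells in 96-well plates to compound at five concentrations. At the GI50, growth is halved. TGI: concentration producing complete growth inhibition.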

These molecules were tested on OVCAR-4 ovarian (assay: inhibition of tumour cell growth, NCI panel, 48 h).
In the case of c1ccc2c3[nH]c(c2c1)=Nc1ccc(cc1)-c1nc2cc(ccc2o1)N=c1[nH]c(c2ccccc12)=Nc1ccc2nc(oc2c1)-c1ccc(cc1)N=3, the TGI is reported as greater than 100 µM.
O=S(=O)(c1ccccc1)c1cccc2c1NCCC2 showed a TGI greater than 100 µM.
Work on COP(=O)(OC)C1=c2c(C)noc2=C2C=COC2C1=O (centres undefined) yielded a TGI greater than 100 µM.

The molecules below were run on ACHN renal (assay: inhibition of tumour cell growth, NCI panel, 48 h).
Nc1c(-c2ccc(Cl)c(Cl)c2)c2ccc([N+](=O)[O-])cc2c(=O)n1-c1nc2ccccc2s1 was tested, and the TGI was 20.6 µM.
In the case of CC(=O)N1C(C(=O)NC2CCCCC2)CSC1c1ccccc1 (centres undefined), the TGI is reported as greater than 100 µM.
With CC1(C)O[C@H]2OC(CO[Si](C)(C)C(C)(C)C)C(N=[N+]=[N-])[C@H]2O1 (some centres undefined) the TGI was 38.6 µM.
Oc1[nH]c2ccccc2c1N=Nc1nc(-c2ccc(Br)cc2)cs1 showed a TGI of 49.1 µM.
With O=C1CCC2(c3ccc(Cl)cc3)Nc3ccncc3N12 (centres undefined) the TGI was greater than 10 µM.
Molecule Oc1ccc(Cc2cc(Cc3ccc(O)cc3)cc(Cc3ccc(O)cc3)c2)cc1 has a TGI greater than 50 µM.
Work on Nc1ncnc2c1[nH]c(=O)n2-c1ccccc1 yielded a TGI greater than 100 µM.
With CC1CN(C)c2ccccc2N=C1NN (centres undefined) the TGI was greater than 100 µM.
C[C@]12CC[C@H](O)CC1=CC[C@@H]1[C@@H]2CC[C@]2(C)C(=N/N)/C(=N\O)C[C@@H]12 showed a TGI greater than 100 µM.
For Cc1ccc(NC(=O)CC2Sc3ccccc3NC2=O)cc1C (centres undefined), the TGI was greater than 100 µM.
NC(=O)C(=Cn1c(=S)[nH]c2ccc([N+](=O)[O-])cc21)C(N)=O showed a TGI greater than 100 µM.
c1ccc2c3[nH]c(c2c1)=Nc1ccc(cc1)-c1nc2cc(ccc2o1)N=c1[nH]c(c2ccccc12)=Nc1ccc2nc(oc2c1)-c1ccc(cc1)N=3 was tested, and the TGI was greater than 100 µM.
For O=S(=O)(c1ccccc1)c1cccc2c1NCCC2, the TGI was greater than 100 µM.
Molecule COP(=O)(OC)C1=c2c(C)noc2=C2C=COC2C1=O (centres undefined) has a TGI greater than 100 µM.

Each molecule was assayed on LOX IMVI melanoma (assay: inhibition of tumour cell growth, NCI panel, 48 h).
O=C1c2cc3c(cc2-c2c1c1ccc(F)cc1c(=O)n2C[C@H](O)[C@@H](O)[C@H](O)CO)OCO3 gave a GI50 of 0.0299 µM and a TGI of 0.137 µM.
COc1ccc2[nH]cc(/C=C(/C)c3ccncc3)c2c1 was tested, and the TGI was 28.8 µM and 18.9 µM.
In the case of Nc1c(-c2ccc(Cl)c(Cl)c2)c2ccc([N+](=O)[O-])cc2c(=O)n1-c1nc2ccccc2s1, the TGI is reported as 27.3 µM.
For COC(=O)[C@@H](O)[C@](O)(CCC(C)C)C(=O)O[C@@H]1C(OC)=C[C@]23CCCN2CCc2cc4c(cc2[C@H]13)OCO4, the TGI was 5.21 µM.
Work on CC(=O)N1C(C(=O)NC2CCCCC2)CSC1c1ccccc1 (centres undefined) yielded a TGI greater than 100 µM.
CC1(C)O[C@H]2OC(CO[Si](C)(C)C(C)(C)C)C(N=[N+]=[N-])[C@H]2O1 (some centres undefined) showed a TGI of 35.9 µM.
Oc1[nH]c2ccccc2c1N=Nc1nc(-c2ccc(Br)cc2)cs1 gave a TGI of 33.1 µM.
Work on COc1ccc2cc1Oc1ccc(cc1)C[C@H]1c3cc(c(OC)cc3CCN1C)Oc1c(O)c(OC)cc3c1[C@H](C2)N(C)CC3 yielded a TGI of 26.7 µM.
Molecule O=C1CCC2(c3ccc(Cl)cc3)Nc3ccncc3N12 (centres undefined) has a TGI greater than 10 µM.
Oc1ccc(Cc2cc(Cc3ccc(O)cc3)cc(Cc3ccc(O)cc3)c2)cc1 showed a TGI greater than 50 µM.
Nc1ncnc2c1[nH]c(=O)n2-c1ccccc1 was tested, and the TGI was greater than 100 µM.
Work on C[C@]12CC[C@H](O)CC1=CC[C@@H]1[C@@H]2CC[C@]2(C)C(=N/N)/C(=N\O)C[C@@H]12 yielded a TGI greater than 100 µM.
With Cc1ccc(NC(=O)CC2Sc3ccccc3NC2=O)cc1C (centres undefined) the TGI was greater than 100 µM.
With NC(=O)C(=Cn1c(=S)[nH]c2ccc([N+](=O)[O-])cc21)C(N)=O the TGI was greater than 100 µM.
With O=C1C=C[C@@H](COC2OC(CO)C(O)C(O)C2O)O1 (some centres undefined) the TGI was 15.8 µM and 16.4 µM.
Work on c1ccc2c3[nH]c(c2c1)=Nc1ccc(cc1)-c1nc2cc(ccc2o1)N=c1[nH]c(c2ccccc12)=Nc1ccc2nc(oc2c1)-c1ccc(cc1)N=3 yielded a TGI greater than 100 µM.
With O=S(=O)(c1ccccc1)c1cccc2c1NCCC2 the TGI was greater than 100 µM.
For COP(=O)(OC)C1=c2c(C)noc2=C2C=COC2C1=O (centres undefined), the TGI was greater than 100 µM.

Each molecule was assayed on T-47D breast (assay: inhibition of tumour cell growth, NCI panel, 48 h).
Work on O=C1c2cc3c(cc2-c2c1c1ccc(F)cc1c(=O)n2C[C@H](O)[C@@H](O)[C@H](O)CO)OCO3 yielded a GI50 of 0.0229 µM and a TGI of 0.15 µM.
With Nc1c(-c2ccc(Cl)c(Cl)c2)c2ccc([N+](=O)[O-])cc2c(=O)n1-c1nc2ccccc2s1 the TGI was greater than 24.9 µM.
C[C@]12CC[C@H](O)CC1=CC[C@@H]1[C@@H]2CC[C@]2(C)C(=N/N)/C(=N\O)C[C@@H]12 was tested, and the TGI was greater than 100 µM.
For NC(=O)C(=Cn1c(=S)[nH]c2ccc([N+](=O)[O-])cc21)C(N)=O, the TGI was greater than 100 µM.

Each molecule was assayed on A549 NSCLC (assay: inhibition of tumour cell growth, NCI panel, 48 h).
In the case of O=C1c2cc3c(cc2-c2c1c1ccc(F)cc1c(=O)n2C[C@H](O)[C@@H](O)[C@H](O)CO)OCO3, the GI50 is reported as 0.226 µM and the TGI is reported as greater than 100 µM.
With COc1ccc2[nH]cc(/C=C(/C)c3ccncc3)c2c1 the GI50 was 5.48 µM and the TGI was greater than 100 µM.
Nc1c(-c2ccc(Cl)c(Cl)c2)c2ccc([N+](=O)[O-])cc2c(=O)n1-c1nc2ccccc2s1 gave a TGI greater than 43.8 µM.
For COC(=O)[C@@H](O)[C@](O)(CCC(C)C)C(=O)O[C@@H]1C(OC)=C[C@]23CCCN2CCc2cc4c(cc2[C@H]13)OCO4, the TGI was 5.19 µM.
Molecule CC(=O)N1C(C(=O)NC2CCCCC2)CSC1c1ccccc1 (centres undefined) has a TGI greater than 100 µM.
In the case of CC1(C)O[C@H]2OC(CO[Si](C)(C)C(C)(C)C)C(N=[N+]=[N-])[C@H]2O1 (some centres undefined), the TGI is reported as 35.8 µM.
Oc1[nH]c2ccccc2c1N=Nc1nc(-c2ccc(Br)cc2)cs1 showed a TGI of 70.8 µM.
Molecule COc1ccc2cc1Oc1ccc(cc1)C[C@H]1c3cc(c(OC)cc3CCN1C)Oc1c(O)c(OC)cc3c1[C@H](C2)N(C)CC3 has a TGI of 75 µM.
Work on O=C1CCC2(c3ccc(Cl)cc3)Nc3ccncc3N12 (centres undefined) yielded a TGI greater than 10 µM.
Work on Oc1ccc(Cc2cc(Cc3ccc(O)cc3)cc(Cc3ccc(O)cc3)c2)cc1 yielded a TGI greater than 50 µM.
Nc1ncnc2c1[nH]c(=O)n2-c1ccccc1 gave a TGI greater than 100 µM.
Work on CC1CN(C)c2ccccc2N=C1NN (centres undefined) yielded a TGI greater than 100 µM.
C[C@]12CC[C@H](O)CC1=CC[C@@H]1[C@@H]2CC[C@]2(C)C(=N/N)/C(=N\O)C[C@@H]12 gave a TGI greater than 100 µM.
Cc1ccc(NC(=O)CC2Sc3ccccc3NC2=O)cc1C (centres undefined) was tested, and the TGI was greater than 100 µM.
NC(=O)C(=Cn1c(=S)[nH]c2ccc([N+](=O)[O-])cc21)C(N)=O gave a TGI greater than 100 µM.
In the case of O=C1C=C[C@@H](COC2OC(CO)C(O)C(O)C2O)O1 (some centres undefined), the GI50 is reported as 16.7 µM and the TGI is reported as 76.9 µM and 62.6 µM.
Work on O=S(=O)(c1ccccc1)c1cccc2c1NCCC2 yielded a TGI greater than 100 µM.
Molecule COP(=O)(OC)C1=c2c(C)noc2=C2C=COC2C1=O (centres undefined) has a TGI greater than 100 µM.

Each molecule was assayed on U251 CNS (assay: inhibition of tumour cell growth, NCI panel, 48 h).
For COc1ccc2[nH]cc(/C=C(/C)c3ccncc3)c2c1, the GI50 was 3.24 µM and the TGI was 11 µM and 67.9 µM.
Work on Nc1c(-c2ccc(Cl)c(Cl)c2)c2ccc([N+](=O)[O-])cc2c(=O)n1-c1nc2ccccc2s1 yielded a TGI greater than 34.1 µM.
COC(=O)[C@@H](O)[C@](O)(CCC(C)C)C(=O)O[C@@H]1C(OC)=C[C@]23CCCN2CCc2cc4c(cc2[C@H]13)OCO4 showed a TGI of 6.05 µM.
For CC(=O)N1C(C(=O)NC2CCCCC2)CSC1c1ccccc1 (centres undefined), the TGI was greater than 100 µM.
CC1(C)O[C@H]2OC(CO[Si](C)(C)C(C)(C)C)C(N=[N+]=[N-])[C@H]2O1 (some centres undefined) was tested, and the TGI was 48.1 µM.
Oc1[nH]c2ccccc2c1N=Nc1nc(-c2ccc(Br)cc2)cs1 was tested, and the TGI was 28.1 µM.
COc1ccc2cc1Oc1ccc(cc1)C[C@H]1c3cc(c(OC)cc3CCN1C)Oc1c(O)c(OC)cc3c1[C@H](C2)N(C)CC3 gave a TGI of 60.3 µM.
Molecule O=C1CCC2(c3ccc(Cl)cc3)Nc3ccncc3N12 (centres undefined) has a TGI greater than 10 µM.
For Oc1ccc(Cc2cc(Cc3ccc(O)cc3)cc(Cc3ccc(O)cc3)c2)cc1, the TGI was greater than 50 µM.
Molecule CC1CN(C)c2ccccc2N=C1NN (centres undefined) has a TGI greater than 100 µM.
C[C@]12CC[C@H](O)CC1=CC[C@@H]1[C@@H]2CC[C@]2(C)C(=N/N)/C(=N\O)C[C@@H]12 was tested, and the TGI was 43.4 µM.
Work on Cc1ccc(NC(=O)CC2Sc3ccccc3NC2=O)cc1C (centres undefined) yielded a TGI greater than 100 µM.
NC(=O)C(=Cn1c(=S)[nH]c2ccc([N+](=O)[O-])cc21)C(N)=O showed a TGI greater than 100 µM.
In the case of O=C1C=C[C@@H](COC2OC(CO)C(O)C(O)C2O)O1 (some centres undefined), the TGI is reported as 31 µM and 30.9 µM.
c1ccc2c3[nH]c(c2c1)=Nc1ccc(cc1)-c1nc2cc(ccc2o1)N=c1[nH]c(c2ccccc12)=Nc1ccc2nc(oc2c1)-c1ccc(cc1)N=3 was tested, and the TGI was greater than 100 µM.
For COP(=O)(OC)C1=c2c(C)noc2=C2C=COC2C1=O (centres undefined), the TGI was greater than 100 µM.
